The text below walks through data of patent US10131652B2, “Pyrimidinyloxy benzene derivatives as herbicides” (E. I. DU PONT DE NEMOURS AND COMPANY, priority 2014, dated 2018).

Test in all cases: Test B pre-/postemergence plant response
Holding throughout (format): in vivo

In experiment [1] the test system is barnyardgrass (Echinochloa crus-galli). The settings on record: for pest or weed control at 125 g/ha: 125 g ai/ha; for pest or weed control at 1000 g/ha: 1000 g ai/ha. The source says:
(§1) Seeds of plant species selected from bamyardgrass (Echinochloa crus-galli), kochia (Kochia scoparia), ragweed (common ragweed, Ambrosia elatior), Italian ryegrass (Lolium multiflorum), large (Lg) crabgrass (Digitaria sanguinalis), giant foxtail (Setaria faberii), momingglory (Ipomoea spp.), pigweed (Amaranthus retroflexus), velvetleaf (Abutilon theophrasti), wheat (Triticum aestivum), and corn (Zea mays) were planted into a blend of loam soil and sand and treated preemergence with a directed soil spray using test chemicals formulated in a non-phytotoxic solvent mixture which included a surfactant. At the same time, plants selected from these crop and weed species and also blackgrass (Alopecurus myosuroides), and galium (catchweed bedstraw, Galium aparine) were planted in pots containing the same blend of loam soil and sand and treated with postemergence applications of test chemicals formulated in the same manner. Plants ranged in height from 2 to 10 cm and were in the one- to two-leaf stage for the postemergence treatment. Treated plants and untreated controls were maintained in a greenhouse for approximately 10 days, after which time all treated plants were compared to untreated controls and visually evaluated for injury. Plant response ratings, summarized in Table B, are based on a 0 to 100 scale where 0 is no effect and 100 is complete control. A dash (-) response means no test result.

For experiment [2], the system named is corn (Zea mays). The settings on record: for Corn plant response rating (crop injury, 0 = no effect, 100 = complete kill) at 125 g/ha: 125 g ai/ha; for Corn plant response rating (crop injury, 0 = no effect, 100 = complete kill) at 1000 g/ha: 1000 g ai/ha.
Text: as §1

Experiment [3] relates to giant foxtail (Setaria faberii). Conditions: for pest or weed control at 125 g/ha: 125 g ai/ha; for pest or weed control at 1000 g/ha: 1000 g ai/ha.
Text: as §1

Experiment [4] has as its system large (Lg) crabgrass (Digitaria sanguinalis). The settings on record: for pest or weed control at 125 g/ha: 125 g ai/ha; for pest or weed control at 1000 g/ha: 1000 g ai/ha.
Text: as §1

In experiment [5] the test system is morningglory (Ipomoea spp.). Conditions: for pest or weed control at 125 g/ha: 125 g ai/ha; for pest or weed control at 1000 g/ha: 1000 g ai/ha.
Text: as §1

Experiment [6] has as its system pigweed (Amaranthus retroflexus). Conditions: for pest or weed control at 125 g/ha: 125 g ai/ha; for pest or weed control at 1000 g/ha: 1000 g ai/ha.
Text: as §1

The test system of experiment [7] is velvetleaf (Abutilon theophrasti). Conditions: for pest or weed control at 125 g/ha: 125 g ai/ha; for pest or weed control at 1000 g/ha: 1000 g ai/ha.
Text: as §1

Experiment [8] has as its system wheat (Triticum aestivum). The settings on record: Triticum aestivum, 240 h, read-out: Plant response rating, Wheat; for plant injury at 125 g/ha: 125 g ai/ha; for plant injury at 1000 g/ha: 1000 g ai/ha, 0 to 100 scale (0 no effect, 100 complete control).
Text: as §1

Where [9] appears, read: Preemergence, 31 g ai/ha, 0 to 100 scale (0 no effect, 100 complete control).
Setting [10] is: Echinochloa crus-galli, post-emergence, 240 h, Postemergence, 0 to 100 scale (0 no effect, 100 complete control), read-out: Plant response rating, Barnyardgrass.
[11] abbreviates: Echinochloa crus-galli, pre-emergence, 240 h, Preemergence, 0 to 100 scale (0 no effect, 100 complete control), read-out: Plant response rating, Barnyardgrass.
[12] abbreviates: Zea mays, post-emergence, 240 h, Postemergence, 0 to 100 scale (0 no effect, 100 complete control).
The mark [13] stands for this setting: Zea mays, pre-emergence, 240 h, Preemergence, 0 to 100 scale (0 no effect, 100 complete control).
[14] abbreviates: Setaria faberi, post-emergence, 240 h, Postemergence, 0 to 100 scale (0 no effect, 100 complete control), read-out: Plant response rating, Foxtail, Giant.
The mark [15] stands for this setting: Setaria faberi, pre-emergence, 240 h, Preemergence, 0 to 100 scale (0 no effect, 100 complete control), read-out: Plant response rating, Foxtail, Giant.
[16] abbreviates: Digitaria sanguinalis, post-emergence, 240 h, Postemergence, 0 to 100 scale (0 no effect, 100 complete control), read-out: Plant response rating, Crabgrass, Large.
The mark [17] stands for this setting: Digitaria sanguinalis, pre-emergence, 240 h, Preemergence, 0 to 100 scale (0 no effect, 100 complete control), read-out: Plant response rating, Crabgrass, Large.
Setting [18] is: Ipomoea, post-emergence, 240 h, Postemergence, 0 to 100 scale (0 no effect, 100 complete control), read-out: Plant response rating, Morningglory.
Where [19] appears, read: Ipomoea, pre-emergence, 240 h, Preemergence, 0 to 100 scale (0 no effect, 100 complete control), read-out: Plant response rating, Morningglory.
Setting [20] is: Amaranthus retroflexus, post-emergence, 240 h, Postemergence, 0 to 100 scale (0 no effect, 100 complete control), read-out: Plant response rating, Pigweed.
Where [21] appears, read: Amaranthus retroflexus, pre-emergence, 240 h, Preemergence, 0 to 100 scale (0 no effect, 100 complete control), read-out: Plant response rating, Pigweed.
Setting [22] is: Abutilon theophrasti, post-emergence, 240 h, Postemergence, 0 to 100 scale (0 no effect, 100 complete control), read-out: Plant response rating, Velvetleaf.
The mark [23] stands for this setting: Abutilon theophrasti, pre-emergence, 240 h, Preemergence, 0 to 100 scale (0 no effect, 100 complete control), read-out: Plant response rating, Velvetleaf.

Like-named read-outs stand apart in the source and are kept apart here.

As for `FC(F)(F)c1cnc(Oc2ccccc2-c2cnc(Br)s2)nc1` [Compound 15, 2-[2-(2-bromo-5-thiazolyl)phenoxy]-5-(trifluoromethyl)pyrimidine], the pest or weed control at 31 g/ha in experiment [1] (Echinochloa crus-galli, post-emergence, 240 h, 31 g ai/ha, Postemergence, 0 to 100 scale, 0 no effect, 100 complete control, read-out: Plant response rating, Barnyardgrass) was determined as 0%; in experiment [3] (Setaria faberi, post-emergence, 240 h, 31 g ai/ha, Postemergence, 0 to 100 scale, 0 no effect, 100 complete control, read-out: Plant response rating, Foxtail, Giant), 0%; in experiment [4] (Digitaria sanguinalis, post-emergence, 240 h, 31 g ai/ha, Postemergence, 0 to 100 scale, 0 no effect, 100 complete control, read-out: Plant response rating, Crabgrass, Large), 0%; in experiment [5] (Ipomoea, post-emergence, 240 h, 31 g ai/ha, Postemergence, 0 to 100 scale, 0 no effect, 100 complete control, read-out: Plant response rating, Morningglory), 0%; in experiment [6] (Amaranthus retroflexus, post-emergence, 240 h, 31 g ai/ha, Postemergence, 0 to 100 scale, 0 no effect, 100 complete control, read-out: Plant response rating, Pigweed) it was 60%; in experiment [7] (Abutilon theophrasti, post-emergence, 240 h, 31 g ai/ha, Postemergence, 0 to 100 scale, 0 no effect, 100 complete control, read-out: Plant response rating, Velvetleaf), 0%. Besides, the pest or weed control at 125 g/ha in experiment [1] (Echinochloa crus-galli, post-emergence, 240 h, postemergence, 0 to 100 scale, 0 no effect, 100 complete control, read-out: Plant response rating, Barnyardgrass) worked out at 0%; in experiment [1] (Echinochloa crus-galli, pre-emergence, 240 h, Preemergence, 0 to 100 scale where 0 is no effect and 100 is complete control, read-out: Plant response rating, Barnyardgrass), 0%; in experiment [3] (Setaria faberi, post-emergence, 240 h, postemergence, 0 to 100 scale, 0 no effect, 100 complete control, read-out: Plant response rating, Foxtail, Giant), 0%; in experiment [3] (Setaria faberi, pre-emergence, 240 h, Preemergence, 0 to 100 scale where 0 is no effect and 100 is complete control, read-out: Plant response rating, Foxtail, Giant), 0%; in experiment [4] (Digitaria sanguinalis, post-emergence, 240 h, postemergence, 0 to 100 scale, 0 no effect, 100 complete control, read-out: Plant response rating, Crabgrass, Large) it was 10%; in experiment [4] (Digitaria sanguinalis, pre-emergence, 240 h, Preemergence, 0 to 100 scale where 0 is no effect and 100 is complete control, read-out: Plant response rating, Crabgrass, Large) it was 0%. In addition, the pest or weed control at 125 g/ha in experiment [5] (Ipomoea, post-emergence, 240 h, postemergence, 0 to 100 scale, 0 no effect, 100 complete control, read-out: Plant response rating, Morningglory) was 10%; in experiment [5] (Ipomoea, pre-emergence, 240 h, Preemergence, 0 to 100 scale where 0 is no effect and 100 is complete control, read-out: Plant response rating, Morningglory) it was 0%; in experiment [6] (Amaranthus retroflexus, post-emergence, 240 h, postemergence, 0 to 100 scale, 0 no effect, 100 complete control, read-out: Plant response rating, Pigweed) it was 70%; in experiment [6] (Amaranthus retroflexus, pre-emergence, 240 h, Preemergence, 0 to 100 scale where 0 is no effect and 100 is complete control, read-out: Plant response rating, Pigweed), 0%; in experiment [7] (Abutilon theophrasti, post-emergence, 240 h, postemergence, 0 to 100 scale, 0 no effect, 100 complete control, read-out: Plant response rating, Velvetleaf), 0%; in experiment [7] (Abutilon theophrasti, pre-emergence, 240 h, Preemergence, 0 to 100 scale where 0 is no effect and 100 is complete control, read-out: Plant response rating, Velvetleaf), 0%. Further, the “Barnyardgrass plant response rating” value in experiment [1] (setting [9]) was determined as 0. The “Corn plant response rating” value in experiment [2] (setting [9]) stood at 0. In experiment [2] (Zea mays, post-emergence, 240 h, 31 g ai/ha, Postemergence, 0 to 100 scale, 0 no effect, 100 complete control), this molecule came in with a Corn plant response rating (crop injury, 0 = no effect, 100 = complete kill) at 31 g/ha of 0%. Also, the Corn plant response rating (crop injury, 0 = no effect, 100 = complete kill) at 125 g/ha in experiment [2] (Zea mays, post-emergence, 240 h, postemergence, 0 to 100 scale, 0 no effect, 100 complete control) was 0%; in experiment [2] (Zea mays, pre-emergence, 240 h, Preemergence, 0 to 100 scale where 0 is no effect and 100 is complete control) it was 0%. The “Foxtail, Giant plant response rating” value in experiment [3] (setting [9]) was 0. In addition, in experiment [4] (setting [9]), the “Crabgrass, Large plant response rating” value is on record as 0. In addition, the “Morningglory plant response rating” value in experiment [5] (setting [9]) stood at 0. In experiment [6] (setting [9]), the “Pigweed plant response rating” value was found to be 0. For the same molecule, the “Velvetleaf plant response rating” value in experiment [7] (setting [9]) was determined as 0. Also, the plant injury at 31 g/ha in experiment [8] (post-emergence, 31 g ai/ha, Postemergence, 0 to 100 scale, 0 no effect, 100 complete control) amounted to 0%. Also, the plant injury at 125 g/ha in experiment [8] (post-emergence, postemergence, 0 to 100 scale, 0 no effect, 100 complete control) turned out to be 0%; in experiment [8] (pre-emergence, Preemergence, 0 to 100 scale where 0 is no effect and 100 is complete control), 0%.

As for `OCc1cc(-c2ccccc2Oc2ncc(Cl)cn2)no1` [Compound 31, 3-[2-[(5-chloro-2-pyrimidinyl)oxy]phenyl]-5-isoxazolemethanol], the pest or weed control at 1000 g/ha came out at 10% in experiment [1] (setting [10]); 0% in experiment [1] (setting [11]); 30% in experiment [3] (setting [14]); 30% in experiment [3] (setting [15]); 50% in experiment [4] (setting [16]); 80% in experiment [4] (setting [17]). The pest or weed control at 1000 g/ha in experiment [5] (setting [18]) is 30%; in experiment [5] (setting [19]), 0%; in experiment [6] (setting [20]) it was 30%; in experiment [6] (setting [21]), 0%; in experiment [7] (setting [22]), 30%; in experiment [7] (setting [23]), 0%. Besides, the Corn plant response rating (crop injury, 0 = no effect, 100 = complete kill) at 1000 g/ha in experiment [2] (setting [12]) and in experiment [2] (setting [13]) was 0% each time. The plant injury at 1000 g/ha was determined as 0% in experiment [8] (post-emergence, Postemergence) and 0% in experiment [8] (pre-emergence, Preemergence).

Consider `O=Cc1cc(-c2ccccc2Oc2ncc(Cl)cn2)no1` [Compound 33, 3-[2-[(5-chloro-2-pyrimidinyl)oxy]phenyl]-5-isoxazolecarboxaldehyde], for which the pest or weed control at 1000 g/ha turned out to be 0% in experiment [1] (setting [10]); 0% in experiment [1] (setting [11]); 10% in experiment [3] (setting [14]); 10% in experiment [3] (setting [15]); 10% in experiment [4] (setting [16]); 80% in experiment [4] (setting [17]). For the same molecule, the pest or weed control at 1000 g/ha was determined as 10% in experiment [5] (setting [18]); 0% in experiment [5] (setting [19]); 10% in experiment [6] (setting [20]); 40% in experiment [6] (setting [21]); 0% in experiment [7] (setting [22]); 0% in experiment [7] (setting [23]). The Corn plant response rating (crop injury, 0 = no effect, 100 = complete kill) at 1000 g/ha in experiment [2] (setting [12]) and in experiment [2] (setting [13]) was 0% each time. For the same molecule, the plant injury at 1000 g/ha in experiment [8] (post-emergence, Postemergence) worked out at 0%; in experiment [8] (pre-emergence, Preemergence), 0%.
